Reference: patent US4929602A, “Method of inhibiting platelet dependent arterial thrombosis” (Scripps Clinic and Research Foundation, priority 1988, dated 1990)

How the values were obtained:
Hemostatic Function = tested on: Hemostatic Function; design: species or system baboon; settings: in vivo
Experimental: After continuous infusion of a | given dose for 15 minutes (min.), the template bleeding time measurement | was begun and blood was drawn for thrombin time determinations. Escalatio | to the next dose was undertaken only after the bleeding time measurement | had been completed. The results are expressed as means ± one standard | deviation.

[1] = Collen et al., cited from earlier work
[2] = Plasma levels of PPACK (antithrombin activity) in carotid endarterectomy study; assay type: in vivo, baboon; settings: iv
[3] = Plasma activity levels of heparin (anti-Xa) and PPACK (antithrombin) during dialyzer study; assay type: in vivo, baboon; settings: for level at 0.5 h / level at 1 h: plasma, 100 nmol/kg per min, Plasma PPACK; for level at 0.5 h: 30 min; for level at 1 h: 60 min
Experimental: Samples were centrifuged (2000×g, for 5 min) immediately after collection and the recovered plasma was frozen until assay. […] In some studies PPACK levels were determined at three sites: (i) systemic (ii) immediately proximal to the dialyzer but distal to the site of the PPACK infusion, and (iii) immediately distal to the dialyzer. Levels of heparin activity were determined by measuring the potentiating effect of heparin of plasma anti-Xa activity using a synthetic chromogenic substrate (Stachrom Heparin, Stago, France). Teien et al., Thrombo Research, 10:399-410 (1977).

[4] = Template bleeding time and platelet count in carotid endarterectomy study (Example 2B); assay type: in vivo, baboon; settings: treated animals, day 3
Experimental: […] The mean platelet count was 318±70×10^3 /μl in the control group and 296±53×10^3 /μl in the treated group.
Bleeding time measurements were performed in duplicate on the shaved volar surface of the forearm, using the standard template method as previously described for studies in baboons. Harker et al., Blood, 58:824-834 (1980).

[5] = Blood and plasma determinations during dialyzer exposure (APTT, FPA, fibrinogen, cell counts, bleeding time, PF4, βTG, C3a); assay type: in vivo, baboon
Experimental: PPACK or standard heparin (from porcine intestinal mucosal, Invenex Laboratories, Chagrin Falls, Ohio) was infused into the arterial limb of the vascular shunt immediately proximal to the dialyzer.
Blood cell counts (platelets, white blood cells, and red blood cells) were performed on disodium EDTA anticoagulated whole blood using a J. T. Baker whole blood analyzer Model 810 (Allentown, Pa.). Hanson et al., J. Clin. Invest. 75:1591-99 (1985); and Hanson et al., Arteriosclerosis, 5:595-603 (1985). Standard template bleeding times, were performed on the shave volar surface of the forearm in a manner as described in Harker et al., New. Eng. J. Med., 287:155-59 (1972) and Malpass et al., Blood, 57:736-40 (1981). Bleeding times were done in duplicate and averaged. Commercially available radioimmunometric assays were carried out to measure plasma levels of platelet factor 4 (PF4) (Abbott Laboratories, North Chicago, Ill.), β-thromboglobulin (βTG) (Amersham Corporation, Arlington Heights, Ill.), fibrinopeptide A (FPA) (MICRO USA Inc., New York, N.Y.) and activated complement C3 antigen (C3a) (Amersham Corp.). Blood samples for these plasma assays were collected, processed and determined as described in the procedures of Example 1 and in Malpass et al., ibid. and Hanson et al., Arterosclerosis, 5:595-603 (1985). […] (APTT) were performed using a standard method (Activated PTT reagent, Ortho Diagnostics, Raritain, N.J.). A fibrometer (Fibrosystem, Division of Becton and Dickinson and Co., Cockeysville, […].) was used for endpoint clot detection as described in Biggs, R., Human Blood Coagulation, Haemostasis and Thrombosis, Oxford, Blackwell Scientific, pages 657-750 (1976). Fibrinogen was determined by a total clottable protein method described by Jacobsson K., Scand. J. Clin. Lab. Invest., 7(Suppl. 14):9-54 (1955).

[6] = PPACK concentration in the plasma during infusion (graft study); assay type: in vivo, baboon; settings: intravenous infusion at 100 nmol/kg/min (about 15 minutes)
Source text: Methods for determining the concentration of a Formula (1) peptide in the plasma are well known in the art, a preferred method being that described by Collen et al., J. Lab. Clin. Med., 99:76-83 (1982), whose disclosures are incorporated herein by reference.

[7] = tested on: primate model of vascular graft thrombosis; settings: aspirin 32.5 mg/kg/day orally 2 hours prior to graft placement; previous studies; cited from earlier work

platelet count (Hemostatic Function) | level at 1.5 h ([2]; 100 nmol/kg/min, 90 min after infusion) | level at 0.5 h ([2]; 30 min after infusion, 100 nmol/kg/min for about 1 hour) | PPACK systemic plasma level ([3]; 100 nmol/kg per min infused proximal to the dialyzer) | level at 0.5 h ([3]; Postdialyzer) | level at 1 h ([3]; Postdialyzer) | level at 0.5 h ([3]; Predialyzer) | level at 1 h ([3]; Predialyzer) | level at 0.5 h ([3]; Systemic) | level at 1 h ([3]; Systemic) | Platelet counts [4] | platelet count ([5]; during dialyzer exposure) | C3a peak level ([5]; during dialyzer use) | white blood cell count, early fall ([5]; during dialyzer use) | PPACK concentration in the plasma [6] | SMILES | effect on heart rate or blood pressure (Hemostatic Function) | T50 removal rate from the circulation [1] | half-life of PPACK's ability to inhibit fibrin formation ([1]; rabbits) | effect on vascular graft 111In-platelet deposition [7]
269 ± 54 × 10^9 /L | 1120 ± 270 ng/mL | 3720 ± 610 ng/mL | 1.5 ± 0.06 µg/mL | 3900 ± 500 ng/mL | 4100 ± 1200 ng/mL | 3050 ± 550 ng/mL | 3650 ± 650 ng/mL | 1400 ± 400 ng/mL | 1600 ± 500 ng/mL | 296±53 ×10^3 /μl | 401 ± 17 × 10^3 /μL | 1989 ± 360 ng/mL | 5,900±810 cells/ul | 1 to 2 µg/mL | N=C(N)NCCC[C@H](NC(=O)[C@@H]1CCCN1C(=O)[C@H](N)Cc1ccccc1)C(=O)CCl [PPACK, D-phenylalanyl-L-propyl-L-arginyl-chloromethyl ketone] | No effect | less than 3 min | about 2.9 minutes | –
– | – | – | – | – | – | – | – | – | – | – | – | – | – | – | CC(=O)Oc1ccccc1C(=O)O [aspirin] | – | – | – | neither aspirin (32.5 mg/kg/day given orally 2 hours prior to graft placement) not aspirin combined with heparin (100 units/kg) affected
